Some test systems named below: CCRF-CEM leukemia; KM12 colon; COLO 205 colon; SF-295 CNS; RXF 393 renal; EKVX NSCLC; MDA-N; HCC-2998 colon; SK-MEL-2 melanoma; NCI-H522 lung; DU-145 prostate.
Common to all, as to test: inhibition of tumour cell growth, NCI panel, 48 h

Structures are written as SMILES. Where “and” joins values, the source holds several entries; their conditions need not be identical. Identical values can stand only once.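 Test compounds were applied to cells in 96-well plates for 48 hours at 5 doses. At the GI50, growth is halved. The concentration for full growth arrest is given as TGI.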

Consider `CCC1CC2CN3CCc4c([nH]c5c(-c6c(OC)ccc7c8c([nH]c67)[C@]6(C(=O)OC)CC7CC(CC)C6N(CC8)C7)c(O)ccc45)[C@](C(=O)OC)(C2)C13` (some centres undefined), for which the TGI is > 100 µM with CCRF-CEM leukemia; 32.3 µM in the assay on KM12 colon; 24.7 µM with COLO 205 colon; 36.1 µM in the assay on SF-295 CNS; 26.8 µM with RXF 393 renal; 39.7 µM in the assay with EKVX NSCLC. Further, the TGI worked out at 24.6 µM in the assay on MDA-N; 27.2 µM with HCC-2998 colon; 47.2 µM with SK-MEL-2 melanoma; 31.6 µM in the assay on NCI-H522 lung; 28.4 µM with DU-145 prostate.

As to `Cc1cc(N(CCC#N)CCC#N)ccc1/C(N=Nc1cccc([N+](=O)[O-])c1)=N/NC(=O)c1cc(Cl)ccc1O`, the TGI is 26.7 µM in the assay on CCRF-CEM leukemia; > 100 µM with KM12 colon; 38.8 µM in the assay on COLO 205 colon; > 100 µM in the assay with SF-295 CNS; 72.2 µM in the assay on RXF 393 renal; 93.6 µM with EKVX NSCLC. Besides, the TGI in the assay on MDA-N is > 100 µM; in the assay with HCC-2998 colon, 93.4 µM; in the assay on SK-MEL-2 melanoma it was 63.3 µM; with NCI-H522 lung, 90.2 µM; in the assay with DU-145 prostate it was > 100 µM.

Consider `CC(=O)Nc1ccc(CNc2cc(=O)[nH]c(=O)[nH]2)cc1`, for which the TGI with CCRF-CEM leukemia, in the assay on KM12 colon, with COLO 205 colon, in the assay with SF-295 CNS, in the assay on RXF 393 renal and with EKVX NSCLC was > 100 µM in each case. The TGI in the assay on MDA-N, in the assay with HCC-2998 colon, with SK-MEL-2 melanoma, in the assay on NCI-H522 lung and in the assay on DU-145 prostate was > 100 µM each time.

Take `Nc1nc(Cl)cc(NCC2(CO)CCC(Cc3ccccc3)C2)n1` (centres undefined): the TGI with CCRF-CEM leukemia is 75.4 µM; with KM12 colon it was 49.8 µM; in the assay on COLO 205 colon it was 28.6 µM; in the assay with SF-295 CNS it was > 100 µM; in the assay on RXF 393 renal, > 80.5 µM; in the assay on EKVX NSCLC, > 100 µM. Besides, the TGI in the assay on MDA-N was > 91.5 µM; in the assay with HCC-2998 colon, > 100 µM; in the assay with SK-MEL-2 melanoma, > 75.7 µM; with NCI-H522 lung it was 49 µM; in the assay with DU-145 prostate, > 100 µM.

As to `O=C(CSc1nc(=O)[nH]c2nc[nH]c12)Nc1ccccc1`, the TGI in the assay with CCRF-CEM leukemia, in the assay on KM12 colon, with COLO 205 colon, in the assay on SF-295 CNS, in the assay with RXF 393 renal and in the assay on EKVX NSCLC was > 100 µM each time. Also, the TGI with MDA-N, in the assay on HCC-2998 colon, with SK-MEL-2 melanoma, with NCI-H522 lung and in the assay on DU-145 prostate was > 100 µM throughout.

For the compound `Cc1nn(C(=O)c2ccc(Cl)cc2)c2c1C(c1ccc([N+](=O)[O-])cc1)SC(N)=N2` (centres undefined), the TGI in the assay on CCRF-CEM leukemia, in the assay with KM12 colon, with COLO 205 colon, with SF-295 CNS, with RXF 393 renal and with EKVX NSCLC was > 10 µM in each case. The TGI in the assay on MDA-N, with HCC-2998 colon, in the assay with SK-MEL-2 melanoma, with NCI-H522 lung and in the assay with DU-145 prostate was > 10 µM in each case.

Consider `O=C1OC(c2ccc(O)c(Cl)c2)(c2ccc(O)c(Cl)c2)c2ccc(Br)c3cccc1c23` (tested in a mixture with another compound), for which the TGI in the assay on CCRF-CEM leukemia was 42.3 µM; in the assay on KM12 colon, 42.2 µM; in the assay on COLO 205 colon it was 23.1 µM; in the assay on SF-295 CNS, 36.6 µM; with RXF 393 renal, 32.5 µM; in the assay with EKVX NSCLC it was 29.3 µM. For the same compound, the TGI in the assay with MDA-N is 45.9 µM; in the assay with HCC-2998 colon it was 35 µM; with SK-MEL-2 melanoma it was 42.1 µM; in the assay on NCI-H522 lung it was 35.7 µM; in the assay on DU-145 prostate it was 46.8 µM. The GI50 in the assay with NCI-H522 lung is 17.8 µM.

On to `COc1cc([C@@H]2c3cc4c(cc3[C@@H](NCCNCCO)[C@H]3COC(=O)[C@H]23)OCO4)cc(OC)c1O`, for which the GI50 in the assay on CCRF-CEM leukemia was 0.123 µM; in the assay with SF-295 CNS, 1.61 µM and 0.719 µM; with EKVX NSCLC, 5.36 µM and 13 µM; in the assay on HCC-2998 colon, 3.39 µM and 1.58 µM; with NCI-H522 lung it was 2.22 µM and 1.05 µM; in the assay with DU-145 prostate, 1.82 µM and 3.88 µM. For the same compound, the TGI in the assay with CCRF-CEM leukemia was 0.567 µM and 0.695 µM; in the assay with KM12 colon, > 40.2 µM and 17.5 µM; in the assay with COLO 205 colon, 24 µM and 24.5 µM; with SF-295 CNS, > 29 µM and 7.12 µM; in the assay on RXF 393 renal it was 8.18 µM and 4.94 µM; with EKVX NSCLC, > 100 µM. Moreover, the TGI in the assay with MDA-N is 21.4 µM and 28.8 µM; with HCC-2998 colon, 32.2 µM and 12.1 µM; in the assay on SK-MEL-2 melanoma, > 26.9 µM and 4.89 µM; in the assay with NCI-H522 lung, > 22 µM and 6.55 µM; in the assay with DU-145 prostate, 9.83 µM and > 33.9 µM.

On to `Cc1ccc(/C=C/C(=O)c2c([O-])on[n+]2-c2ccccc2)cc1`, for which the TGI in the assay on CCRF-CEM leukemia was > 100 µM; in the assay with KM12 colon, 7.69 µM; in the assay on COLO 205 colon it was 7.35 µM; in the assay on SF-295 CNS, > 46.4 µM; with RXF 393 renal it was 3.65 µM; in the assay with EKVX NSCLC, 14.6 µM. Also, the TGI in the assay with MDA-N was > 26.3 µM; in the assay on HCC-2998 colon, 4.15 µM; with SK-MEL-2 melanoma, 5.39 µM; in the assay on NCI-H522 lung, 8.06 µM; in the assay with DU-145 prostate, 8.41 µM.

Consider `NC1C/C(=N\O)c2c(I)sc(I)c21` (centres undefined), for which the TGI is > 100 µM in the assay with CCRF-CEM leukemia; 27.7 µM with KM12 colon; 40.6 µM in the assay on COLO 205 colon; 31.8 µM with SF-295 CNS; 35.8 µM with RXF 393 renal; 40.4 µM in the assay with EKVX NSCLC. In addition, the TGI in the assay on MDA-N is > 54 µM; in the assay on HCC-2998 colon, 38.5 µM; in the assay with SK-MEL-2 melanoma, 35.2 µM; in the assay on NCI-H522 lung, 3.7 µM; in the assay on DU-145 prostate, 31.4 µM.

`O=C(N/N=C1\CCc2ccccc2C1)N/N=C1\CCc2ccccc2C1`: the TGI in the assay with CCRF-CEM leukemia, in the assay on KM12 colon, with COLO 205 colon, with SF-295 CNS, with RXF 393 renal and with EKVX NSCLC was > 10 µM throughout. Also, the TGI in the assay with MDA-N, in the assay with HCC-2998 colon, in the assay on SK-MEL-2 melanoma, with NCI-H522 lung and with DU-145 prostate was > 10 µM throughout.

`CC(=O)Oc1ccc2c(c1)c1c(=O)oc(N(C)C)nc1n2Cc1ccccc1`: the TGI with CCRF-CEM leukemia, in the assay on KM12 colon, with COLO 205 colon, with SF-295 CNS, in the assay with RXF 393 renal and in the assay with EKVX NSCLC was > 100 µM in each case. The TGI in the assay with MDA-N, in the assay with HCC-2998 colon, in the assay with SK-MEL-2 melanoma, in the assay on NCI-H522 lung and with DU-145 prostate was > 100 µM throughout.
